Assays:
Format in all cases: in vivo
[1] = tested on: Kochia (Kochia scoparia); experiment: Test A preemergence; conditions: Bassia scoparia, pre-emergence, 240 h; for pest or weed control at 125 g/ha: 125 g ai/ha, Preemergence, visual injury rating after approximately 10 d, read-out: Kochia plant response rating (0 to 100 scale, 0 is no effect, 100 is complete control); for pest or weed control at 500 g/ha: 500 g ai/ha, preemergence, visual injury rating about 10 d after treatment, 0 to 100 scale (0 no effect, 100 complete control), read-out: Kochia plant response rating
Procedure, shortened: (§1)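 In a loam soil and sand blend, planted seeds got a preemergence directed soil spray, and young plants at the one- to two-leaf stage, 2–10 cm high, got a postemergence application; ~10 d greenhouse hold; injury rated visually, 0 = none, 100 = complete control.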

[2] = tested on: barnyardgrass (Echinochloa crus-galli); experiment: Test A preemergence; conditions: Echinochloa crus-galli, pre-emergence, 240 h; for pest or weed control at 125 g/ha: 125 g ai/ha, Preemergence, visual injury rating after approximately 10 d, read-out: Barnyardgrass plant response rating (0 to 100 scale, 0 is no effect, 100 is complete control); for pest or weed control at 500 g/ha: 500 g ai/ha, preemergence, visual injury rating about 10 d after treatment, 0 to 100 scale (0 no effect, 100 complete control), read-out: Barnyardgrass plant response rating
Procedure, shortened: as §1

[3] = tested on: giant foxtail (Setaria faberii); experiment: Test A preemergence; conditions: Setaria faberi, pre-emergence, 240 h; for pest or weed control at 125 g/ha: 125 g ai/ha, Preemergence, visual injury rating after approximately 10 d, read-out: Foxtail, Giant plant response rating (0 to 100 scale, 0 is no effect, 100 is complete control); for pest or weed control at 500 g/ha: 500 g ai/ha, preemergence, visual injury rating about 10 d after treatment, 0 to 100 scale (0 no effect, 100 complete control), read-out: Foxtail, Giant plant response rating
Procedure, shortened: as §1

[4] = tested on: pigweed (Amaranthus retroflexus); experiment: Test A preemergence; conditions: Amaranthus retroflexus, pre-emergence, 240 h; for pest or weed control at 125 g/ha: 125 g ai/ha, Preemergence, visual injury rating after approximately 10 d, read-out: Pigweed plant response rating (0 to 100 scale, 0 is no effect, 100 is complete control); for pest or weed control at 500 g/ha: 500 g ai/ha, preemergence, visual injury rating about 10 d after treatment, 0 to 100 scale (0 no effect, 100 complete control), read-out: Pigweed plant response rating
[5] = tested on: ragweed (common ragweed, Ambrosia elatior); experiment: Test A preemergence; conditions: Ambrosia artemisiifolia, pre-emergence, 240 h; for pest or weed control at 125 g/ha: 125 g ai/ha, Preemergence, visual injury rating after approximately 10 d, read-out: Ragweed plant response rating (0 to 100 scale, 0 is no effect, 100 is complete control)
Procedure, shortened: as §1

[6] = tested on: ryegrass, Italian (Italian ryegrass, Lolium multiflorum); experiment: Test A preemergence; conditions: Lolium multiflorum, pre-emergence, 240 h; for pest or weed control at 125 g/ha: 125 g ai/ha, Preemergence, visual injury rating after approximately 10 d, read-out: Ryegrass, Italian plant response rating (0 to 100 scale, 0 is no effect, 100 is complete control); for pest or weed control at 500 g/ha: 500 g ai/ha, preemergence, visual injury rating about 10 d after treatment, 0 to 100 scale (0 no effect, 100 complete control), read-out: Ryegrass, Italian plant response rating
Procedure, shortened: as §1

[7] = tested on: Galium (catchweed bedstraw, Galium aparine); experiment: Test A postemergence; conditions: Galium, post-emergence, 240 h, postemergence, approx. 10 d; for pest or weed control at 125 g/ha: 125 g ai/ha, visual injury on 0 to 100 scale (0 no effect, 100 complete control), read-out: Galium plant response rating; for pest or weed control at 500 g/ha: 500 g ai/ha, visual injury, 0 to 100 scale (0 no effect, 100 complete control), read-out: Plant response rating, Galium
Procedure, shortened: as §1

[8] = tested on: Kochia (Kochia scoparia); experiment: Test A postemergence; conditions: Bassia scoparia, post-emergence, 240 h, postemergence, approx. 10 d; for pest or weed control at 125 g/ha: 125 g ai/ha, visual injury on 0 to 100 scale (0 no effect, 100 complete control), read-out: Kochia plant response rating; for pest or weed control at 500 g/ha: 500 g ai/ha, visual injury, 0 to 100 scale (0 no effect, 100 complete control), read-out: Plant response rating, Kochia
Procedure, shortened: as §1

[9] = tested on: barnyardgrass (Echinochloa crus-galli); experiment: Test A postemergence; conditions: Echinochloa crus-galli, post-emergence, 240 h, read-out: Plant response rating, Barnyardgrass; for pest or weed control at 125 g/ha: 125 g ai/ha, Postemergence, visual injury after approximately 10 d, 0 to 100 scale where 0 is no effect and 100 is complete control; for pest or weed control at 500 g/ha: 500 g ai/ha, postemergence, visual injury, 0 to 100 scale (0 no effect, 100 complete control), approx. 10 d
Procedure, shortened: as §1

[10] = tested on: blackgrass (Alopecurus myosuroides); experiment: Test A postemergence; conditions: Alopecurus myosuroides, post-emergence, 240 h, read-out: Plant response rating, Blackgrass; for pest or weed control at 125 g/ha: 125 g ai/ha, Postemergence, visual injury after approximately 10 d, 0 to 100 scale where 0 is no effect and 100 is complete control; for pest or weed control at 500 g/ha: 500 g ai/ha, postemergence, visual injury, 0 to 100 scale (0 no effect, 100 complete control), approx. 10 d
Procedure, shortened: as §1

[11] = tested on: corn (Zea mays); experiment: Test A postemergence; conditions: Zea mays, post-emergence, 240 h; for Corn plant response rating (crop injury, 0 = no effect, 100 = complete kill) at 125 g/ha: 125 g ai/ha, Postemergence, visual injury after approximately 10 d, 0 to 100 scale where 0 is no effect and 100 is complete control; for Corn plant response rating (crop injury, 0 = no effect, 100 = complete kill) at 500 g/ha: 500 g ai/ha, postemergence, visual injury, 0 to 100 scale (0 no effect, 100 complete control), approx. 10 d
Procedure, shortened: as §1

[12] = tested on: giant foxtail (Setaria faberii); experiment: Test A postemergence; conditions: Setaria faberi, post-emergence, 240 h, postemergence, approx. 10 d; for pest or weed control at 125 g/ha: 125 g ai/ha, visual injury on 0 to 100 scale (0 no effect, 100 complete control), read-out: Foxtail, Giant plant response rating; for pest or weed control at 500 g/ha: 500 g ai/ha, visual injury, 0 to 100 scale (0 no effect, 100 complete control), read-out: Plant response rating, Foxtail, Giant
Procedure, shortened: as §1

[13] = tested on: pigweed (Amaranthus retroflexus); experiment: Test A postemergence; conditions: Amaranthus retroflexus, post-emergence, 240 h, postemergence, approx. 10 d; for pest or weed control at 125 g/ha: 125 g ai/ha, visual injury on 0 to 100 scale (0 no effect, 100 complete control), read-out: Pigweed plant response rating; for pest or weed control at 500 g/ha: 500 g ai/ha, visual injury, 0 to 100 scale (0 no effect, 100 complete control), read-out: Plant response rating, Pigweed
Procedure, shortened: as §1

[14] = tested on: ragweed (common ragweed, Ambrosia elatior); experiment: Test A postemergence; conditions: Ambrosia artemisiifolia, post-emergence, 240 h, postemergence, approx. 10 d; for pest or weed control at 125 g/ha: 125 g ai/ha, visual injury on 0 to 100 scale (0 no effect, 100 complete control), read-out: Ragweed plant response rating; for pest or weed control at 500 g/ha: 500 g ai/ha, visual injury, 0 to 100 scale (0 no effect, 100 complete control), read-out: Plant response rating, Ragweed
Procedure, shortened: as §1

[15] = tested on: ryegrass, Italian (Italian ryegrass, Lolium multiflorum); experiment: Test A postemergence; conditions: Lolium multiflorum, post-emergence, 240 h, postemergence, approx. 10 d; for pest or weed control at 125 g/ha: 125 g ai/ha, visual injury on 0 to 100 scale (0 no effect, 100 complete control), read-out: Ryegrass, Italian plant response rating; for pest or weed control at 500 g/ha: 500 g ai/ha, visual injury, 0 to 100 scale (0 no effect, 100 complete control), read-out: Plant response rating, Ryegrass, Italian
Procedure, shortened: as §1

[16] = tested on: wheat (Triticum aestivum); experiment: Test A postemergence; conditions: Triticum aestivum, post-emergence, 240 h, postemergence, approx. 10 d; for plant injury at 125 g/ha: 125 g ai/ha, visual injury on 0 to 100 scale (0 no effect, 100 complete control), read-out: Wheat plant response rating; for plant injury at 500 g/ha: 500 g ai/ha, visual injury, 0 to 100 scale (0 no effect, 100 complete control), read-out: Plant response rating, Wheat
Procedure, shortened: as §1

Compound	pest or weed control at 125 g/ha [1] [%]	pest or weed control at 500 g/ha [1] [%]	pest or weed control at 125 g/ha [2] [%]	pest or weed control at 500 g/ha [2] [%]	pest or weed control at 125 g/ha [3] [%]	pest or weed control at 500 g/ha [3] [%]	pest or weed control at 125 g/ha [4] [%]	pest or weed control at 500 g/ha [4] [%]	pest or weed control at 125 g/ha [5] [%]	pest or weed control at 125 g/ha [6] [%]	pest or weed control at 500 g/ha [6] [%]	pest or weed control at 125 g/ha [7] [%]	pest or weed control at 500 g/ha [7] [%]	pest or weed control at 125 g/ha [8] [%]	pest or weed control at 500 g/ha [8] [%]	pest or weed control at 125 g/ha [9] [%]	pest or weed control at 500 g/ha [9] [%]	pest or weed control at 125 g/ha [10] [%]	pest or weed control at 500 g/ha [10] [%]	Corn plant response rating (crop injury, 0 = no effect, 100 = complete kill) at 125 g/ha [11] [%]	also measured
CC(C)COc1cccc([C@H]2CN(C)C(=O)[C@@H]2C(=O)Nc2ccccc2F)c1 [Compound 1028]	0	60	90	90	90	90	0	0	0	30	30	40	50	0	0	80	90	30	40	0	Corn plant response rating (crop injury, 0 = no effect, 100 = complete kill) at 500 g/ha [11]: 30%; pest or weed control at 125 g/ha [12]: 80%; pest or weed control at 500 g/ha [12]: 80%; pest or weed control at 125 g/ha [13]: 0%; pest or weed control at 500 g/ha [13]: 0%; pest or weed control at 125 g/ha [14]: 0%; pest or weed control at 500 g/ha [14]: 0%; pest or weed control at 125 g/ha [15]: 0%; pest or weed control at 500 g/ha [15]: 40%; plant injury at 125 g/ha [16]: 0%; plant injury at 500 g/ha [16]: 40%
CC(C)COc1cccc([C@H]2CN(C)C(=O)[C@@H]2C(=O)Nc2cccc(F)c2F)c1 [Compound 1029]	0	90	90	90	90	90	0	0	0	70	90	20	40	0	0	80	90	30	40	50	pest or weed control at 500 g/ha ([5]; 500 g ai/ha, preemergence, visual injury rating about 10 d after treatment, 0 to 100 scale (0 no effect, 100 complete control), read-out: Ragweed plant response rating): 0%; Corn plant response rating (crop injury, 0 = no effect, 100 = complete kill) at 500 g/ha [11]: 70%; pest or weed control at 125 g/ha [12]: 80%; pest or weed control at 500 g/ha [12]: 90%; pest or weed control at 125 g/ha [13]: 0%; pest or weed control at 500 g/ha [13]: 0%; pest or weed control at 125 g/ha [14]: 0%; pest or weed control at 500 g/ha [14]: 0%; pest or weed control at 125 g/ha [15]: 0%; pest or weed control at 500 g/ha [15]: 40%; plant injury at 125 g/ha [16]: 30%; plant injury at 500 g/ha [16]: 60%

From patent US12077503B2, “Substituted cyclic amides and their use as herbicides” (FMC CORPORATION, priority 2015, dated 2024)
